Measurements taken from ChEMBL document CHEMBL1150905, “Cytotoxic quassinoids from Simaba cedron” (J Nat Prod, 1998).
In brackets after ≈: the same amount, converted by molar mass.

System: P388
Test: Cytotoxicity against mouse P388 cells after 3 days by MTT assay
Format: functional, cell-based
Settings: P388, 72 h

## CC1=CC(=O)O[C@@H]1[C@@]1(C)C[C@H]2OC(=O)C[C@H]3[C@@H](C)[C@@H](O)[C@]4(O)OC[C@]23[C@@H]14 [AILANQUASSIN A]
  IC50: 39 µg/mL (≈ 107 µM)

## CC1=CC(=O)[C@@H](O)[C@]2(C)[C@H]3[C@@H](O)[C@H](O)[C@@]4(C)OC[C@@]35[C@@H](C[C@@H]12)OC(=O)[C@H](OC(=O)CC(C)C)[C@@H]45 [CEDRONOLACTONE A]
  IC50: 0.0074 µg/mL (≈ 0.0155 µM)

## CC1=CC(=O)O[C@H]1[C@@]1(C)C[C@H]2OC(=O)C[C@H]3[C@@H](C)[C@@H](O)[C@]4(O)OC[C@]23[C@@H]14 [CEDRONOLACTONE B]
  IC50: 6.5 µg/mL (≈ 17.8 µM)

## CC1=CC(=O)O[C@H]1[C@@]1(C)C[C@H]2OC(=O)[C@H](O)[C@H]3[C@@H](C)[C@@H](O)[C@]4(O)OC[C@@]32[C@@H]14 [CEDRONOLACTONE C]
  IC50: 49 µg/mL (≈ 129 µM)

## CC1=CC(=O)[C@@H](O)[C@]2(C)[C@H]3[C@@]4(O)OC[C@@]35[C@@H](C[C@@H]12)OC(=O)C[C@H]5[C@@H](C)[C@H]4O [CHAPARRINONE]
  IC50: 0.92 µg/mL (≈ 2.43 µM)

## CC1=C[C@H](O)[C@@H](O)[C@]2(C)[C@H]3[C@@]4(O)OC[C@@]35[C@@H](C[C@@H]12)OC(=O)C[C@H]5[C@@H](C)[C@H]4O [CHAPARRIN]
  IC50: > 100 µg/mL

## CC1=CC(=O)[C@@H](O)[C@]2(C)[C@H]3[C@]4(O)OC[C@]35[C@H]([C@@H](C)[C@H]4O)[C@@H](O)C(=O)O[C@@H]5C[C@@H]12 [GLAUCARUBOLONE]
  IC50: 1.4 µg/mL (≈ 3.55 µM)

## CC1=C[C@H](O)[C@@H](O)[C@]2(C)[C@H]3[C@@]4(O)OC[C@]35[C@H]([C@@H](C)[C@H]4O)[C@@H](O)C(=O)O[C@@H]5C[C@@H]12 [GLAUCARUBOL]
  IC50: > 100 µg/mL

## CC(=O)O[C@H]1C[C@@](C)([C@H]2OC(=O)C[C@@H]2CO)C2=CC(=O)O[C@@H]3C[C@@H]4[C@](C)(C(=O)C=C[C@@]4(C)O)[C@@H]1[C@]23C [GUANEPOLIDE]
  IC50: 70 µg/mL (≈ 139 µM)

## CC1=CC(=O)O[C@@H]1[C@@]1(C)C[C@H]2OC(=O)[C@H](O)[C@H]3[C@@H](C)[C@@H](O)[C@]4(O)OC[C@@]32[C@@H]14 [POLYANDROL]
  IC50: 17 µg/mL (≈ 44.7 µM)

## CC[C@@H](C)C(=O)O[C@H]1C(=O)O[C@@H]2C[C@H]3C(C)=CC(=O)[C@@H](O)[C@]3(C)[C@H]3[C@@H](O)[C@H](O)[C@]4(C)OC[C@]32[C@@H]14 [SIMALIKALACTONE D]
  IC50: 0.0055 µg/mL (≈ 0.0115 µM)

## CC1=CC(=O)[C@@H](O)[C@]2(C)[C@H]3[C@@H](O)[C@H](O)[C@@]4(C)OC[C@@]35[C@@H](C[C@@H]12)OC(=O)[C@H](O)[C@@H]45 [YADANZIOLIDE C]
  IC50: 2.4 µg/mL (≈ 6.08 µM)
